Test results reported in patent publication US20240239861A1, “GLUCAGON-RECEPTOR SELECTIVE POLYPEPTIDES AND METHODS OF USE THEREOF” (i2O Therapeutics, Inc., priority 2016, published 2024).
*1 amine or outer side, *2 acyl side, *3 side chain or, on linkers, in order; H or OH if unused. Where a SMILES comes first, the peptide text is derived from it. Side-chain parts run from the residue outwards. [ ]: non-standard residue; d: D form. The star is where a group is joined. C18 diacid = O=C(O)CCCCCCCCCCCCCCCCC(=O)*; γGlu = O=C(O)[C@H](CCC(=O)[*:2])N[*:1]; Palmitoyl = CCCCCCCCCCCCCCCC(=O)*; AEEA = NCCOCCOCC(=O)O; Aib = CC(C)(N)C(=O)O

Assays:
human GLP-1R = human GLP-1R (Homo sapiens, UniProt P43220); test: Peptide-receptor mediated cAMP accumulation (LANCE Ultra cAMP) in CHO-K1 cells transfected with human GLP-1R; assay type: cell-based; conditions: Table 7; GLP-1R; read-out: GLP-1R pEC50 (converted)
human GCGR = human GCGR (Homo sapiens, UniProt P47871); test: Peptide-receptor mediated cAMP accumulation (LANCE Ultra cAMP) in CHO-K1 cells transfected with human GCGR; assay type: cell-based; conditions: read-out: GluR pEC50 (converted)
Chain of human GCGR (P47871 26-477): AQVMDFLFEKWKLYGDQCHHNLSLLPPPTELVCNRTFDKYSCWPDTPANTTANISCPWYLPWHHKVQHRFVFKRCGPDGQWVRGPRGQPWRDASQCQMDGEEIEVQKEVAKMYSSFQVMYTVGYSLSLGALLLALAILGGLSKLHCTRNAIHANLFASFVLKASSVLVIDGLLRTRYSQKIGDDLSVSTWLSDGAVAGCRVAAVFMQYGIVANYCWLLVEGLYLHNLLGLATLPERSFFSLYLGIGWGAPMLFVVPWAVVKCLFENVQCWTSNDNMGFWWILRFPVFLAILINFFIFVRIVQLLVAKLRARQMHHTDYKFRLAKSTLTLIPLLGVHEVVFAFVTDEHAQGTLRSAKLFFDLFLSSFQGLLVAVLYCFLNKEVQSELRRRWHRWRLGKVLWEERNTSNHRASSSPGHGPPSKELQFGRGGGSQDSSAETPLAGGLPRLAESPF

Chain of human GLP-1R (P43220 24-463): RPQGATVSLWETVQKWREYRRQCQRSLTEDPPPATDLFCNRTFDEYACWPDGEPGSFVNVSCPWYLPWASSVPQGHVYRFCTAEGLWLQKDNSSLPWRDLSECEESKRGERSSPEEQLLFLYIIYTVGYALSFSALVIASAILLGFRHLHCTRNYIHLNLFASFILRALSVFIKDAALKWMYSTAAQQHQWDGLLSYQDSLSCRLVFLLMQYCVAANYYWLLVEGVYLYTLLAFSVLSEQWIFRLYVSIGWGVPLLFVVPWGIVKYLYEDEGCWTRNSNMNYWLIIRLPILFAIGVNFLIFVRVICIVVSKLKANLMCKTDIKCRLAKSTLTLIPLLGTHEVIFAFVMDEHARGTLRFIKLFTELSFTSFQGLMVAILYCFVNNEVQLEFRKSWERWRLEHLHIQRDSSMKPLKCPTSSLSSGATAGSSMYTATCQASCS

Row | Structure (SMILES) | EC50 (human GLP-1R) [nM] | EC50 (human GCGR) [nM]
1 | CCCCCCCCCCCCCCCC(=O)N[C@@H](CCC(=O)NCCCC[C@H](NC(=O)[C@H](CC(=O)O)NC(=O)[C@H](CO)NC(=O)[C@@H](NC(=O)[C@H](Cc1ccccc1)NC(=O)[C@@H](NC(=O)CNC(=O)[C@H](CCC(N)=O)NC(=O)[C@H](CO)NC(=O)[C@@H](N)Cc1c[nH]c2ccccc12)[C@@H](C)O)[C@@H](C)O)C(=O)N[C@@H](CO)C(=O)N[C@@H](CCCCN)C(=O)N[C@@H](Cc1ccc(O)cc1)C(=O)N[C@@H](CC(C)C)C(=O)N[C@@H](CC(=O)O)C(=O)NC(C)(C)C(=O)N[C@@H](CCCCN)C(=O)N[C@@H](CCCNC(=N)N)C(=O)N[C@@H](C)C(=O)N[C@@H](CCC(N)=O)C(=O)N[C@@H](CCC(=O)O)C(=O)N[C@@H](Cc1ccccc1)C(=O)N[C@H](C(=O)NC(C)(C)C(=O)N[C@@H](Cc1c[nH]c2ccccc12)C(=O)N[C@@H](CC(C)C)C(=O)N[C@@H](CCC(=O)O)C(=O)N[C@@H](CC(=O)O)C(=O)N[C@@H](CCC(=O)O)C(=O)N1CCC[C@H]1C(=O)N[C@@H](CO)C(=O)N[C@@H](CO)C(=O)NCC(=O)N[C@@H](C)C(=O)N1CCC[C@H]1C(=O)N1CCC[C@H]1C(=O)N1CCC[C@H]1C(=O)N[C@@H](CO)C(=O)O)C(C)C)C(=O)O [Compound B20] (H-WSQGTFTSDK([γGlu-Palmitoyl])SKYLD[Aib]KRAQEFV[Aib]WLEDEPSSGAPPPS-OH) | 316 | 0.00794
2 | CC(C)C[C@H](NC(=O)[C@H](Cc1ccc(O)cc1)NC(=O)[C@H](CCCCN)NC(=O)[C@H](CO)NC(=O)[C@H](Cc1ccc(O)cc1)NC(=O)[C@H](CC(=O)O)NC(=O)[C@H](CO)NC(=O)[C@@H](NC(=O)[C@H](Cc1ccccc1)NC(=O)[C@@H](NC(=O)CNC(=O)[C@H](CCC(N)=O)NC(=O)[C@H](CO)NC(=O)[C@@H](N)Cc1c[nH]c2ccccc12)[C@@H](C)O)[C@@H](C)O)C(=O)N[C@@H](CC(=O)O)C(=O)N[C@@H](CCCCNC(=O)COCCOCCNC(=O)COCCOCCNC(=O)CC[C@H](NC(=O)CCCCCCCCCCCCCCCCC(=O)O)C(=O)O)C(=O)N[C@@H](CCCCN)C(=O)N[C@@H](CCCNC(=N)N)C(=O)N[C@@H](C)C(=O)N[C@@H](CCC(N)=O)C(=O)N[C@@H](CCC(=O)O)C(=O)N[C@@H](Cc1ccccc1)C(=O)N[C@H](C(=O)NC(C)(C)C(=O)N[C@@H](Cc1c[nH]c2ccccc12)C(=O)N[C@@H](CC(C)C)C(=O)N[C@@H](CCC(=O)O)C(=O)N[C@@H](CC(=O)O)C(=O)N[C@@H](CCC(=O)O)C(=O)N1CCC[C@H]1C(=O)N[C@@H](CO)C(=O)N[C@@H](CO)C(=O)NCC(=O)N[C@@H](C)C(=O)N1CCC[C@H]1C(=O)N1CCC[C@H]1C(=O)N1CCC[C@H]1C(=O)N[C@@H](CO)C(=O)O)C(C)C [Compound B23] (H-WSQGTFTSDYSKYLDK([AEEA-AEEA-γGlu-C18 diacid])KRAQEFV[Aib]WLEDEPSSGAPPPS-OH) | 316 | 0.316
3 | CCCCCCCCCCCCCCCC(=O)N[C@@H](CCC(=O)NCCCC[C@H](NC(=O)[C@H](CO)NC(=O)[C@H](CO)NC(=O)[C@@H]1CCCN1C(=O)[C@H](CCC(=O)O)NC(=O)[C@H](CC(=O)O)NC(=O)[C@H](CCC(=O)O)NC(=O)[C@H](CC(C)C)NC(=O)[C@H](Cc1c[nH]c2ccccc12)NC(=O)[C@@H](NC(=O)[C@@H](NC(=O)[C@H](Cc1ccccc1)NC(=O)[C@H](CCC(=O)O)NC(=O)[C@H](CCC(N)=O)NC(=O)[C@H](C)NC(=O)[C@H](CCCNC(=N)N)NC(=O)[C@H](CCCCN)NC(=O)C(C)(C)NC(=O)[C@H](CC(=O)O)NC(=O)[C@H](CC(C)C)NC(=O)[C@H](Cc1ccc(O)cc1)NC(=O)[C@H](CCCCN)NC(=O)[C@H](CO)NC(=O)[C@H](Cc1ccc(O)cc1)NC(=O)[C@H](CC(=O)O)NC(=O)[C@H](CO)NC(=O)[C@@H](NC(=O)[C@H](Cc1ccccc1)NC(=O)[C@@H](NC(=O)CNC(=O)[C@H](Cc1c[nH]cn1)NC(=O)[C@H](CO)NC(=O)[C@@H](N)Cc1ccc(O)cc1)[C@@H](C)O)[C@@H](C)O)C(C)C)[C@@H](C)CC)C(=O)N[C@@H](C)C(=O)N1CCC[C@H]1C(=O)N1CCC[C@H]1C(=O)N1CCC[C@H]1C(=O)N[C@@H](CO)C(=O)O)C(=O)O [Compound B25] | > 1000 | 0.0316
4 | CCCCCCCCCCCCCCCC(=O)N[C@@H](CCC(=O)NCCCC[C@H](NC(=O)[C@H](CC(=O)O)NC(=O)[C@H](CC(C)C)NC(=O)[C@H](Cc1ccc(O)cc1)NC(=O)[C@H](CCCCN)NC(=O)[C@H](CO)NC(=O)[C@H](Cc1ccc(O)cc1)NC(=O)[C@H](CC(=O)O)NC(=O)[C@H](CO)NC(=O)[C@@H](NC(=O)[C@H](Cc1ccccc1)NC(=O)[C@@H](NC(=O)CNC(=O)[C@H](Cc1c[nH]cn1)NC(=O)[C@H](CO)NC(=O)[C@@H](N)Cc1ccc(O)cc1)[C@@H](C)O)[C@@H](C)O)C(=O)N[C@@H](CCCCN)C(=O)N[C@@H](CCCNC(=N)N)C(=O)N[C@@H](C)C(=O)N[C@@H](CCC(N)=O)C(=O)N[C@@H](CCC(=O)O)C(=O)N[C@@H](Cc1ccccc1)C(=O)N[C@H](C(=O)N[C@H](C(=O)N[C@@H](Cc1c[nH]c2ccccc12)C(=O)N[C@@H](CC(C)C)C(=O)N[C@@H](CCC(=O)O)C(=O)N[C@@H](CC(=O)O)C(=O)N[C@@H](CCC(=O)O)C(=O)N1CCC[C@H]1C(=O)N[C@@H](CO)C(=O)N[C@@H](CO)C(=O)NCC(=O)N[C@@H](C)C(=O)N1CCC[C@H]1C(=O)N1CCC[C@H]1C(=O)N1CCC[C@H]1C(=O)N[C@@H](CO)C(=O)O)[C@@H](C)CC)C(C)C)C(=O)O [Compound B26] | > 1000 | 0.01
5 | CCCCCCCCCCCCCCCC(=O)N[C@@H](CCC(=O)NCCCC[C@H](NC(=O)[C@H](CC(=O)O)NC(=O)[C@H](CO)NC(=O)[C@@H](NC(=O)[C@H](Cc1ccccc1)NC(=O)[C@@H](NC(=O)CNC(=O)[C@H](Cc1c[nH]cn1)NC(=O)[C@H](CO)NC(=O)[C@@H](N)Cc1ccc(O)cc1)[C@@H](C)O)[C@@H](C)O)C(=O)N[C@@H](CO)C(=O)N[C@@H](CCCCN)C(=O)N[C@@H](Cc1ccc(O)cc1)C(=O)N[C@@H](CC(C)C)C(=O)N[C@@H](CC(=O)O)C(=O)NC(C)(C)C(=O)N[C@@H](CCCCN)C(=O)N[C@@H](CCCNC(=N)N)C(=O)N[C@@H](C)C(=O)N[C@@H](CCC(N)=O)C(=O)N[C@@H](CCC(=O)O)C(=O)N[C@@H](Cc1ccccc1)C(=O)N[C@H](C(=O)N[C@H](C(=O)N[C@@H](Cc1c[nH]c2ccccc12)C(=O)N[C@@H](CC(C)C)C(=O)N[C@@H](CCC(=O)O)C(=O)N[C@@H](CC(=O)O)C(=O)N[C@@H](CCC(=O)O)C(=O)N1CCC[C@H]1C(=O)N[C@@H](CO)C(=O)N[C@@H](CO)C(=O)NCC(=O)N[C@@H](C)C(=O)N1CCC[C@H]1C(=O)N1CCC[C@H]1C(=O)N1CCC[C@H]1C(=O)N[C@@H](CO)C(=O)O)[C@@H](C)CC)C(C)C)C(=O)O [Compound B27] (H-YSHGTFTSDK([γGlu-Palmitoyl])SKYLD[Aib]KRAQEFVIWLEDEPSSGAPPPS-OH) | 251 | 0.00316
6 | CCCCCCCCCCCCCCCC(=O)N[C@@H](CCC(=O)NCCCC[C@H](NC(=O)[C@@H](NC(=O)[C@H](Cc1ccccc1)NC(=O)[C@H](CCC(=O)O)NC(=O)[C@H](CCC(N)=O)NC(=O)[C@H](C)NC(=O)[C@H](CCCNC(=N)N)NC(=O)[C@H](C)NC(=O)[C@H](C)NC(=O)[C@H](CC(=O)O)NC(=O)[C@H](CC(C)C)NC(=O)[C@H](Cc1ccc(O)cc1)NC(=O)[C@H](CCCCN)NC(=O)[C@H](CO)NC(=O)[C@H](Cc1ccc(O)cc1)NC(=O)[C@H](CC(=O)O)NC(=O)[C@H](CO)NC(=O)[C@@H](NC(=O)[C@H](Cc1ccccc1)NC(=O)[C@@H](NC(=O)CNC(=O)[C@H](CCC(N)=O)NC(=O)[C@H](CO)NC(=O)[C@@H](N)Cc1ccc(O)cc1)[C@@H](C)O)[C@@H](C)O)C(C)C)C(=O)N[C@@H](Cc1c[nH]c2ccccc12)C(=O)N[C@@H](CC(C)C)C(=O)N[C@@H](CCC(=O)O)C(=O)N[C@@H](CC(=O)O)C(=O)N[C@@H](CCC(=O)O)C(=O)N1CCC[C@H]1C(=O)N[C@@H](CCCCN)C(=O)N[C@@H](CO)C(=O)N[C@@H](CCCCN)C(=O)N[C@@H](CO)C(=O)N1CCC[C@H]1C(=O)N1CCC[C@H]1C(=O)N1CCC[C@H]1C(=O)N[C@@H](CO)C(N)=O)C(=O)O [Compound B34] (H-YSQGTFTSDYSKYLDAARAQEFVK([γGlu-Palmitoyl])WLEDEPKSKSPPPS-NH2) | > 1000 | 0.158
7 | CCCCCCCCCCCCCCCC(=O)N[C@@H](CCC(=O)NCCCC[C@H](NC(=O)[C@H](CC(=O)O)NC(=O)[C@H](CC(C)C)NC(=O)[C@H](Cc1ccc(O)cc1)NC(=O)[C@H](CCCCN)NC(=O)[C@H](CO)NC(=O)[C@H](Cc1ccc(O)cc1)NC(=O)[C@H](CC(=O)O)NC(=O)[C@H](CO)NC(=O)[C@@H](NC(=O)[C@H](Cc1ccccc1)NC(=O)[C@@H](NC(=O)CNC(=O)[C@H](CCC(N)=O)NC(=O)[C@H](CO)NC(=O)[C@@H](N)Cc1ccc(O)cc1)[C@@H](C)O)[C@@H](C)O)C(=O)N[C@@H](C)C(=O)N[C@@H](CCCNC(=N)N)C(=O)N[C@@H](C)C(=O)N[C@@H](CCC(N)=O)C(=O)N[C@@H](CCC(=O)O)C(=O)N[C@@H](Cc1ccccc1)C(=O)N[C@H](C(=O)N[C@@H](CCCCN)C(=O)N[C@@H](Cc1c[nH]c2ccccc12)C(=O)N[C@@H](CC(C)C)C(=O)N[C@@H](CCC(=O)O)C(=O)N[C@@H](CC(=O)O)C(=O)N[C@@H](CCC(=O)O)C(=O)N1CCC[C@H]1C(=O)N[C@@H](CCCCN)C(=O)N[C@@H](CO)C(=O)N[C@@H](CCCCN)C(=O)N[C@@H](CO)C(=O)N1CCC[C@H]1C(=O)N1CCC[C@H]1C(=O)N1CCC[C@H]1C(=O)N[C@@H](CO)C(N)=O)C(C)C)C(=O)O [Compound B35] (H-YSQGTFTSDYSKYLDK([γGlu-Palmitoyl])ARAQEFVKWLEDEPKSKSPPPS-NH2) | 251 | 0.00794
